Where two headings read alike, the source gives them in different places.
Columns and labels:
mice = test: Acute toxicity LD50 i.v. in mice; format: in vivo
Excerpt: Some of the available data relative to Gd chelates of this invention are detailed in Example 4, together with a comparison with the known data of the following commercially available products: DOTAREM®, OMNISCAN®, PROHANCE®. The datum relative to Gd-DTPA-bismethylammide, Gd-DTPA-BMA, which is the active ingredient of OMNISCAN®, is also reported, even if there is remarkable difference in the LD50 values. Such a difference is known to be due to the simultaneous presence in OMNISCAN® of Gd-DTPA-BMA 500 mM, and of the complex of the same ligand with sodium and calcium, Na[CaDTPA-BMA], at a 25 mM concentration. Therefore the comparison of this last datum with those available for the compounds of this invention is more significant as far as determination homogeneity is concerned.

Charge = format: physicochemical; details: Table I, own compound
[1] = Osmolality of aqueous solutions; format: physicochemical
[2] = cited from earlier work; for formal charge: background, gadolinium chelate before salification

Compound	LD50 (mice) i.v. (mice)	formal charge [2]	other results
CC(C(=O)NC(CCCO)(CCCO)CCCO)N1CCN(CC(=O)[O-])CCN(CC(=O)[O-])CCN(CC(=O)[O-])CC1.[Gd+3] (stereo not shown) [Example 1, Gadolinium complex of 10-[2-[[1,1-bis(3-hydroxypropyl)-4-hydroxybutyl]amino]-1-methylene-2-oxoethyl]-1,4,7,10-tetraazacyclododecan-1,4,7-triacetic acid]	23.4 mmol/kg	–	–
C=C(C(=O)NCCOCCO)N1CCN(CC(=O)[O-])CCN(CC(=O)[O-])CCN(CC(=O)[O-])CC1.[Gd+3] [Example 2, Gadolinium complex of 10-[2-[[2-(2-hydroxyethoxy)ethyl]amino]-1-(methylene)-2-oxoethyl]-1,4,7,10-tetraazacyclododecan-1,4,7-triacetic acid]	37.6 mmol/kg	–	CHARGE (Charge): non-ionic; OSMOLALITY [1]: 855 mOsm/kg H2 O
CNC(=O)CN(CCN(CCN(CC(=O)[O-])CC(=O)NC)CC(=O)[O-])CC(=O)[O-].[Gd+3] [GdDTPA-BMA, Gd-DTPA-bismethylamide]	–	–	CHARGE ([2]; Table I, from the data available on the product brochures): non-ionic
O=C([O-])CN1CCN(CC(=O)[O-])CCN(CC(=O)O)CCN(CC(=O)[O-])CC1.[Gd+3] [Gd-DOTA]	–	-1	–
O=C([O-])CN(CCN(CC(=O)[O-])CC(=O)O)CCN(CC(=O)[O-])CC(=O)O.[Gd+3] [Gd-DTPA]	–	-2	–
